One molecule from publication PMC2868067 (Molecular cancer therapeutics, 2010) can be followed below.

This assay deals with kinases in the Src family. Conditions: read-out: apparent IC50, Srctide; multiplexed, treated K-562 lysates (Figure 6A).

What is called IC50 is the point on the concentration scale where inhibition reaches its midpoint. As to `Cc1nc(Nc2ncc(C(=O)Nc3c(C)cccc3Cl)s2)cc(N2CCN(CCO)CC2)n1` [dasatinib, N-(2-chloro-6-methyl-phenyl)-2-(6-(4-(2-hydroxyethyl)-piperazin-1-yl)-2-methylpyrimidin-4-ylamino)thiazole-5-carboxamide], the IC50 is 1.1 nM.
